# Data taken from US8367662B2, “Organic compounds” (Novartis AG, priority 2007, dated 2013).
# T1: human ALK5 (ALK5 T204D kinase domain) (Homo sapiens, UniProt P36897, T204D)
# T1 construct: The kinase domain of human ALK5 (amino acids 200-503); made in house; host or cells: insect cells (baculovirus)
# T1 sequence (P36897 200-503 T204D): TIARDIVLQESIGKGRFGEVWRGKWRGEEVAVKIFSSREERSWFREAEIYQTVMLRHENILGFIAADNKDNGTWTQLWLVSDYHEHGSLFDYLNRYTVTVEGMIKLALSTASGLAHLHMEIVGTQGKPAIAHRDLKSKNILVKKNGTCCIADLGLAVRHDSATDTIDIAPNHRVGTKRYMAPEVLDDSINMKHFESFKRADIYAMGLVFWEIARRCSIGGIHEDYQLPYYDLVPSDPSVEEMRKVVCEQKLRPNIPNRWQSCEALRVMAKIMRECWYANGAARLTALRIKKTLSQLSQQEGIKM
# B1: follistatin: an antagonist of activin signalling (protein, UniProt P19883 30-344, looked up)
# Follistatin: GNCWLRQAKNGRCQVLYKTELSKEECCSTGRLSTSWTEEDVNDNTLFKWMIFNGGAPNCIPCKETCENVDCGPGKKCRMNKKNKPRCVCAPDCSNITWKGPVCGLDGKTYRNECALLKARCKEQPELEVQYQGRCKKTCRDVFCPGSSTCVVDQTNNAYCVTCNRICPEPASSEQYLCGNDGVTYSSACHLRKATCLLGRSIGLAYEGKCIKAKSCEDIQCTGGKKCLWDFKVGRGRCSLCDELCPDSKSDEPVCASDNATYASECAMKEAACSSGVLLEVKHSGSCNSISEDTEEEEEDEDQDYSFPISSILEW
# Tested on: bleomycin-treated rats
# Experiment: not given
# Settings: cited from earlier work
Molecule,lung fibrosis,number of macrophages and neutrophils in bronchoalveolar lavage
B1,attenuated lung fibrosis,significantly reduced

# Tested on: dimethylnitrosamine induced liver fibrosis
# Experiment: not given
# Settings: rat, during the 3 weeks treatment; cited from earlier work
row,Molecule,side effects
1,c1ccc(-c2cc(-c3cn[nH]c3-c3ccccn3)ccn2)cc1 [GW6604],no obvious side effects

# Same assay, conditions: rat, given therapeutically, dimethylnitrosamine induced liver fibrosis; cited from earlier work
Molecule,death rate prevented [%],inhibition of extracellular matrix deposition [%]
c1ccc(-c2cc(-c3cn[nH]c3-c3ccccn3)ccn2)cc1 [GW6604],40,60

# Molecular target: T1, human ALK5 (ALK5 T204D kinase domain)
# Experiment: ALK5 kinase assay: [33P] phosphate incorporation into casein
# Format: biochemical
# Settings: casein substrate, 1 μM unlabelled ATP
# Procedure: The kinase activity of ALK5 is assessed by measuring radiolabelled phosphate [33P] incorporation in to the generic substrate, casein. The kinase domain of human ALK5 (amino acids 200-503) is fused to an N-terminal histidine tag. The kinase activity of ALK5 is rendered constitutive via point mutation at amino acid 204 (threonine to aspartate modification, ALK5 T204D) and the kinase construct is engineered to be expressed from a baculovirus expression construct in insect cells. The purified, recombinantly-expressed histidine-tagged ALK5 T204D protein is dissolved at 5.4 mg/ml in 50 mM Tris-HCl pH 8.0, 150 mM NaCl, 5 mM DTT. ALK5 T204D is dissolved to 2.5 μg/ml in assay buffer (Assay buffer: 20 mM Tris-HCl pH 7.4, 10 mM MgCl2, 2 mM MnCl2) on the day of use.
# Test compounds and reference compounds are dissolved in assay buffer without DTT containing 5% (v/v) DMSO. Stock solutions of test and reference compounds are diluted in assay buffer with DTT (1.25 mM) containing 4.5% (v/v) DMSO. 10 μl of test or reference compound are added to the appropriate wells of 96 well U-bottomed plate. Total enzyme activity is determined by measuring ALK5 T204D activity in the absence of ALK5 kinase inhibitor reference compounds. Non-specific binding (NSB) is determined by measuring the activity of ALK5 T204D in the presence of ALK5 kinase inhibitor reference compounds. 10 μl of dephosphorylated casein stock solution (dephosphorylated casein is dissolved in ddH2O at 20 mg/ml) is added per well (200 μg/well final assay concentration). 20 μl of ALK5 T204D (2.5 μg/ml solution) is added per well (50 ng/well final assay concentration). The plates are left to incubate at room temperature for 10 minutes.
# 10 μl of ATP mix is added to the well to initiate the reaction (0.66 nM [^33P]ATP/1 μM unlabelled ATP/well final assay concentration). The ATP mix is prepared as follows, unlabelled ATP (3 mM) is dissolved in ddH2O and pH adjusted to 7.4. The stock concentration of [^33P]ATP is 10 μCi/μl. The appropriate volume of [^33P]ATP is added to unlabelled ATP solution such that the final assay concentration per well is 0.1 μCi. Following addition of the ATP mix, the plates are incubated at room temperature for 50 minutes. The kinase reaction is terminated by the addition of 50 μL Stop Buffer (20 mM Tris-HCl pH 7.4, 10 mM EDTA).
# 75 μ/well from the reaction plate is transferred to a Multiscreen-IP plate (MultiScreen-IP plates are prepared by added 50 μL of 70% (v/v) ethanol per well and incubated for 5 minutes at room temperature. The ethanol is removed by aspiration via a MultiScreen HTS Vaccum Manifold unit (Millipore, Cat no: MSVMHT500). The plates are washed twice by adding 200 μl/well ddH2O). The MultiScreen-IP plate is incubated at room temperature for 30 minutes to allowing binding of casein to the plate. The MultiScreen-IP plates are washed three times by adding 200 μl/well 100 mM phosphoric acid solution and the gasket is carefully removed from the back of the MultiScreen-IP plate and the plate dried in the oven for 30 minutes. The MultiScreen-IP plate is backsealed, 50 μL of Microscint®20 is added, then the plates are topsealed and radiolabelled casein detected and quantified on a TopCount™ plate-reader using the ^33P scintillation protocol.
row,Molecule,IC50 [nM]
1,"c1cncc(-c2ccn3c(-c4cccc(-n5cccn5)c4)cnc3c2)c1 [Example 1.1, 3-(3-Pyrazol-1-yl-phenyl)-7-pyridin-3-yl-imidazo[1,2-a]pyridine]",4
2,"c1ccc(-c2cc(-c3cnc4cc(-c5ccc(N6CCOCC6)nc5)ccn34)ccn2)cc1 [Example 1.5, 7-(6-Morpholin-4-yl-pyridin-3-yl)-3-(2-phenyl-pyridin-4-yl)-imidazo[1,2-a]pyridine]",8
3,"O=Cc1cccc(-c2ccn3c(-c4cccc(-n5cccn5)c4)cnc3c2)c1 [Example 1.9, 3-[3-(3-Pyrazol-1-yl-phenyl)-imidazo[1,2-a]pyridin-7-yl]-benzaldehyde]",86
4,"CNC(=O)c1cccc(-c2ccn3c(-c4ccnc(-c5cccc(F)c5)c4)cnc3c2)c1 [Example 1.13, 3-{3-[2-(3-Fluoro-phenyl)-pyridin-4-yl]-imidazo[1,2-a]pyridin-7-yl}-N-methyl-benzamide]",55
5,"Fc1cccc(-c2cc(-c3cnc4cc(-c5cccnc5)ccn34)ccn2)c1 [Example 1.17, 3-[2-(3-Fluoro-phenyl)-pyridin-4-yl]-7-pyridin-3-yl-imidazo[1,2-a]pyridine]",76
6,"CNC(=O)c1cccc(-c2ccn3c(-c4ccnc(-n5ccc(C)n5)c4)cnc3c2)c1 [Example 1.23, N-Methyl-3-{3-[2-(3-methyl-pyrazol-1-yl)-pyridin-4-yl]-imidazo[1,2-a]pyridin-7-yl}-benzamide]",77
7,"Fc1ccccc1-c1cc(-c2cnc3cc(-c4cccnc4)ccn23)ccn1 [Example 1.30, 3-[2-(2-Fluoro-phenyl)-pyridin-4-yl]-7-pyridin-3-yl-imidazo[1,2-a]pyridine]",47
8,"O=Cc1cccc(-c2ccn3c(-c4ccnc(N5CCCC5)c4)cnc3c2)c1 [Example 1.46, 3-[3-(2-Pyrrolidin-1-yl-pyridin-4-yl)-imidazo[1,2-a]pyridin-7-yl]-benzaldehyde]",52
9,COc1cc(-c2cnc3ccc(N[C@H]4CC[C@H](O)CC4)cn23)ccn1 [Example 2.2],108
10,CCOc1cc(-c2cnc3ccc(N[C@H]4CC[C@H](O)CC4)cn23)ccn1 [Example 2.7],281
11,"c1cc(-c2cnc3ccc(-c4ccoc4)cn23)cc(-c2ccoc2)n1 [Example 2.12, 6-Furan-3-yl-3-(2-Furan-3-yl-pyridin-4-yl)-imidazo[1,2-a]pyridine]",147
12,"CNC(=O)c1ccc(-c2ccc3ncc(-c4ccnc(-c5ccoc5)c4)n3c2)cc1 [Example 2.18, 4-[3-(2-Furan-3-yl-pyridin-4-yl)-imidazo[1,2-a]pyridin-6-yl]-N-methyl-benzamide]",57
13,"CS(=O)(=O)Nc1cccc(-c2ccc3ncc(-c4ccnc(-c5ccoc5)c4)n3c2)c1 [Example 2.20, N-{3-[3-(2-Furan-3-yl-pyridin-4-yl)-imidazo[1,2-a]pyridin-6-yl]-phenyl}-methanesulfonamide]",97
